Laboratory results taken from patent publication US20130035361A1, “USE OF ERGOTHIONEINE AS A PRESERVATIVE IN FOODS AND BEVERAGES” (priority 2007, published 2013).
≈ marks a conversion by molar mass, not a printed value.

Assays:
[1] = ERGO concentration found in Pinot noir wines after 18 months of bottle storage; type: physicochemical; conditions: for ERGO Found: Pinot noir wine, after 18 months bottle storage
Source text: According to the invention, sulfur dioxide was replaced in whole or in part with L-ergothioneine in Pinot noir wines at bottling.

[2] = Stability over time in food and beverages; type: physicochemical; conditions: stored over a period of several years
[3] = cited from earlier work
[4] = per one unit of L-Ergothioneine; cited from earlier work
[5] = system: LPO formation in mouse liver; conditions: cited from earlier work
liver tissue of rats = conditions: exogenous L-ergothioneine; cited from earlier work

Structure (SMILES)	ERGO Found ([1]; SO2 added 30 mg/L, ERGO added 0 mg/L at bottling) [mg/L]	ERGO Found ([1]; SO2 added 70 mg/L, ERGO added 0 mg/L at bottling) [mg/L]	ERGO Found ([1]; SO2 added 0 mg/L, ERGO added 10 mg/L at bottling) [mg/L]	ERGO Found ([1]; SO2 added 0 mg/L, ERGO added 30 mg/L at bottling) [mg/L]	ERGO Found ([1]; SO2 added 0 mg/L, ERGO added 50 mg/L at bottling) [mg/L]	ERGO Found ([1]; SO2 added 0 mg/L, ERGO added 70 mg/L at bottling) [mg/L]	presence of ergothioneine in the wine after storage ([1]; Pinot noir wines, SO2 replaced in whole or in part at bottling, after 18 months of storage)	stability over time [2]	water solubility [3]	solubility limit ([3]; room temperature) [mM]	units of Vitamin E equivalent to one unit [4]	LPO formation [5]	decomposition of existing LPO [5]	lipid peroxidation by toxic compounds (liver tissue of rats)
O=S=O [SO2, sulfur dioxide, reference compound]	7.3	7.5												
C[N+](C)(C)[C@@H](Cc1c[nH]c(=S)[nH]1)C(=O)[O-] [L-ergothioneine]			8.8	29.8	55.4	81.2	still present in the wine	very stable over time	readily water soluble	900 (≈ 206 mg/mL)	~7000 units of Vitamin E	inhibited LPO formation	enhanced the decomposition of existing LPO	prevent lipid peroxidation
